Holding throughout (format): in vivo, Balb/c male mice
Series [1] in a line: Animal bioavailability of Compound 3, i.v. experiment: plasma and organ levels by LC/MS. As to conditions: IV, 238 min. As to the method:
(§1) Twenty 8-week-old Balb/c male mice (Charles River, US) were used in all experiments. Mice were kept at a temperature of 22±3° C. and provided with a standard diet and water.
(§2) For i.v. experiment mice received standard food before and during the experiment. For oral route, mice received no food 3 h before the start of the experiment and no food after.
0.1 mL of a solution of Compound 3, 3 mg/mL in mannitol 5% (previously sterilized by filtration onto Acrodisc® syringe filter 0.2 μm HT Tuffryn® membrane) was injected in the tail vein. Two animals were killed 0.5 h after injection, two animals were killed 1 h after injection, two animals were killed 2 h after injection and two animals were killed 4 h after injection.
(§3) At the time of sacrifice, mice were bled by heart puncture. Then organs were removed for biochemical studies (brain, kidney, liver and lung).
Red blood cells and plasma were separated by addition of heparine (15 μL) and centrifugation (2000 rpm, 5 min). […] The liquid layer (50 μL) was then analysed by LC/MS (MRM procedure, Column PARTISIL 5 ODS-3 RAC II, Cat. no. 4222-225).
Organs were washed with 5 ml of distillated water and dried with blotting paper. Volumes of organs were measured by addition of the organ into one half full of water graduated test tube. […]

The nature of series [2]: Animal bioavailability of Compound 3, oral route experiment (gavage): plasma and organ levels by LC/MS. As to conditions: for Brain: Oral. The protocol:
as §1, §2
Animals received by gavage a 0.1 mL of a solution of Compound 3 3 mg/mL in mannitol 5% (previously sterilized by filtration onto Acrodisc® syringe filter […] HT Tuffryn® membrane). Two animals were killed 0.5 h after gavage, two animals were killed 1 h after gavage, two animals were killed 2 h after gavage and two animals were killed 4 h after gavage.
as §3
Red blood cells and plasma were separated by addition of heparine (15 μL) and centrifugation (2000 rpm, 5 min). Then 1.5 mL of HPLC mobil phase (Ammonium acetate 3 mM, acetonitrile, methanol, formic acid; 1/1/1/0.07 (v/v) at pH=3) were added to 40 μL of plasma and the mixture was centrifugated (2000 rpm, 5 min). The liquid layer (50 μL) was then analysed by LC/MS (MRM procedure, Column PARTISIL 5 ODS-3 RAC II, Cat. no. 4222-225).
Organs were washed with 5 ml of distillated water and dried with blotting paper. Volumes of organs were measured by addition of the organ into one half full of water graduated test tube. Organs were dried a second time with blotting paper and then weighed. A volume of mobil phase (in mL) corresponding to 6 times of the organ weigh (in g) was added to the organ. The mixture was crushed mechanically (with JANKE & KUNKEL, IKA Labortechnik ULTRA-TURRAX T25; 24000 rpm, 1 min), sonicated 30 min and centrifugated 20 min (2000 rpm). To this mixture, 1 mL of the liquid layer was removed and filtrated with Acrodisc CRPTFE® syringe Filter in order to obtain a clear solution suitable for LC/MS analysis.

Series [3] can be described thus: Animal bioavailability of Compound 3, i.v. experiment: plasma and organ levels by LC/MS. The settings on record: IV, 82 min.
Where [4] appears, read: 0.1 mL of 3 mg/mL in mannitol 5%, individual mouse.
[5] abbreviates: third line = mean of the two mice.

The values below come from US7649091B2, “Orally bioavailable low molecular weight metalloporphyrins as antioxidants” (Eukarion, Inc., priority 2003, dated 2010).

Values joined by “and” are separate entries in the source; they are usually repeats but may differ in a detail not shown here. Equal values may be shown once.

Turning to “{[{(Porphine-5,15-diyl)bis[cyclopropyl-diyl]}](2-)-N^21,N^22,N^23,N^24}manganese(III)acetate [Compound 3]”, the Brain was 89 ng/g and 91 ng/g in series [1] (setting [4]); 90 ng/g in series [1] (setting [5]); 88 ng/g and 24 ng/g in series [2] (70 min, 0.1 mL of 3 mg/mL in mannitol 5% by gavage, individual mouse); 56 ng/g in series [2] (70 min, third line = mean of the two mice); 8 ng/g and 9 ng/g in series [2] (234 min, 0.1 mL of 3 mg/mL in mannitol 5% by gavage, individual mouse); 9 ng/g in series [2] (234 min, third line = mean of the two mice). The Brain in series [3] (setting [4]) was 25 ng/g and 75 ng/g; in series [3] (setting [5]), 50 ng/g. Besides, the “Brain, oral level as percent of IV level” value was “(112%)” in series [2] (Oral 70 min mean relative to IV 82 min mean (in parentheses)) and “(10%)” in series [2] (Oral 234 min mean relative to IV 238 min mean (in parentheses)). This substance had a Lung in series [2] (mouse, in vivo, po) of 67 ng/g.
